Assay results as given in patent US8729014B2, “Specific HCV NS3 protease inhibitors” (RFS Pharma, LLC, priority 2010, dated 2014).

Biological target: Hepatitis C Virus NS3/4A protease Wild Type (Hepatitis C virus genotype 1b, UniProt O92972)
Test: HCV NS3/4A protease FRET assay, wild type
Assay type: biochemical
Experimental: The HCV NS3/4A protease assays were carried out using a SensoLyte® 490 HCV Protease Assay Kit using fluorescence resonance energy transfer (FRET) peptide (AnaSpec).

Hepatitis C Virus NS3/4A protease Wild Type, sequence (O92972 1027-1657): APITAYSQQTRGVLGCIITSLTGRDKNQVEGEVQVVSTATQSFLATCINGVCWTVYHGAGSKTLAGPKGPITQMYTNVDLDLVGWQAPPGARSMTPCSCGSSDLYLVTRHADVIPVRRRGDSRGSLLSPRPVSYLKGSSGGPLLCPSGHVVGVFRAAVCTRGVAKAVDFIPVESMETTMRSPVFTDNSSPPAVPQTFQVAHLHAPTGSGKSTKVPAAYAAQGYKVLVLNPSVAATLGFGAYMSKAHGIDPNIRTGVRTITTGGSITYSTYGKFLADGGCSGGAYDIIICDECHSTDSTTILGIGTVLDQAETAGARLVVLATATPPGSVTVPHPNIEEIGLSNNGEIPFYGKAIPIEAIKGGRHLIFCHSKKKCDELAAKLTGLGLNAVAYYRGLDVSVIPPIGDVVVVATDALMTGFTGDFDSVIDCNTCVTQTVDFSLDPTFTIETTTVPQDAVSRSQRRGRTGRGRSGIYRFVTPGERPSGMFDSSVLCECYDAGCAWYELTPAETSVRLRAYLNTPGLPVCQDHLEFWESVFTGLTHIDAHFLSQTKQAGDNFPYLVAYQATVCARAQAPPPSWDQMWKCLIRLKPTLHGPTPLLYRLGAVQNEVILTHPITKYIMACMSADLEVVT

C=C[C@@H]1C[C@]1(NC(=O)[C@@H]1C[C@@H](OC(=O)N2Cc3cccc(F)c3C2)CN1C(=O)[C@@H](NC(=O)OC(C)(C)C)C(C)(C)C)C(=O)NS(=O)(=O)C1CC1 [Compound 10]
Fold Increase of EC50: 1.0
Fold Increase of EC90: 1.0
EC50 (read-out: Anti-HCV protease activity EC50): 4.9 nM
EC90 (read-out: Anti-HCV protease activity EC90): 30 nM
